Data: patent publication US9145404B2, “Tetomilast polymorphs” (Otsuka Pharmaceutical Co., Ltd., priority 2006, dated 2015)

Key:
[1] = Transformation of type B crystal to type A crystal while stirred as a suspension in acetone-water, crystal form by powder X-ray diffraction; assay type: physicochemical; conditions: 5 g suspended in 40 ml acetone and 10 ml water
Description: (§1) The powder X-ray diffraction spectrum was measured in an angle of diffraction that ranged from 3° to 40°, according to the general test method of the Pharmacopoeia of Japan, using RAD-2B diffractometer (radiation source: CuKα) manufactured by Rigaku Denki. During the measurement, voltage/current was set at 35 kV/20 mA, and the scan speed was set at 5°/min.
The mixing ratio of a mixture consisting of an anhydrous tetomilast type A crystal and an anhydrous tetomilast type B crystal was obtained by comparing the powder X-ray diffraction spectrum of the above mixture, with the powder X-ray diffraction spectrum of a mixture formed by mixing a pure anhydrous tetomilast type A crystal and a pure anhydrous tetomilast type B crystal at various ratios.
Thermal transformation from an anhydrous tetomilast type B crystal to an anhydrous tetomilast type A crystal was confirmed by the means described in (1) to (3) below:
(§2) (2) 5 g of the anhydrous tetomilast type B crystal obtained in Reference example 1 (3) was suspended in a solution consisting of 40 ml of acetone and 10 ml of water, and the obtained mixture was then stirred at 20° C. At that time, sampling was carried out at intervals of 15 minutes, 30 minutes, 60 minutes, and 120 minutes, and each of the obtained samples was subjected to powder X-ray diffraction to examine the crystal form.
as §2, with “(3)” for “(2)”, “40°” for “20°”, “form. As a result, it could be confirmed that the sample collected after stirring for 15 minutes was a mixture consisting of an anhydrous tetomilast type B crystal and an anhydrous tetomilast type A crystal (A:B=50:50).” for “form.”

[2] = Crystal form after standing at 20° C. to 30° C., examined by powder X-ray diffraction; assay type: physicochemical; conditions: left at a temperature between 20° C. and 30° C. for approximately 1 year
Description: as §1
(1) The anhydrous tetomilast type B crystal obtained in Reference example 1 (3) was left at a temperature between 20° C. and 30° C. for approximately 1 year, and thereafter, the crystal form thereof was examined by powder X-ray diffraction.

CCOc1ccc(-c2nc(-c3cccc(C(=O)O)n3)cs2)cc1OCC [anhydrous tetomilast type B crystal, 2-(3,4-diethoxyphenyl)-4-(2-carboxy-6-pyridyl)thiazole]
crystal form by powder X-ray diffraction ([1]; stirred at 20° C., 15 minutes): maintained the form as an anhydrous tetomilast type B crystal
crystal form by powder X-ray diffraction ([1]; stirred at 20° C., 30 minutes): maintained the form as an anhydrous tetomilast type B crystal
crystal form by powder X-ray diffraction ([1]; stirred at 20° C., 60 minutes): maintained the form as an anhydrous tetomilast type B crystal
crystal form by powder X-ray diffraction ([1]; stirred at 40° C., 30 minutes): changed to an anhydrous tetomilast type A crystal
crystal form by powder X-ray diffraction ([1]; stirred at 40° C., 60 minutes): changed to an anhydrous tetomilast type A crystal
crystal form by powder X-ray diffraction ([1]; stirred at 40° C., 120 minutes): changed to an anhydrous tetomilast type A crystal
crystal form by powder X-ray diffraction [2]: maintained the form as an anhydrous tetomilast type B crystal
